Results on one compound are retold here after publication PMC8548913, “Piezo1–Pannexin1 complex couples force detection to ATP secretion in cholangiocytes” (The Journal of General Physiology, 2021).

The target in the assay is T1, Piezo1 (Mus musculus, UniProt E2JF22).
T1 construct: native full-length channel in primary cultured cholangiocytes (DIV5) from intrahepatic bile duct units; monomer ~290 kD band reported for GFP-tagged protein
Put plainly: Fura-2 ratiometric Ca2+ imaging. To be noted: agonist; native DIV5 mouse cholangiocytes, 2.5 mM external Ca2+; Yoda1 without effect in Piezo1-knockout HEK293T cells; read-out: apparent EC50. The format is cell-based. The text has this: Fura-2 ratiometric Ca2+ imaging on Piezo1 | Concentration-response profile for Yoda1 in mouse DIV5 cholangiocytes, yielding apparent EC50

Structures are written as SMILES.

T1 sequence (E2JF22 whole entry): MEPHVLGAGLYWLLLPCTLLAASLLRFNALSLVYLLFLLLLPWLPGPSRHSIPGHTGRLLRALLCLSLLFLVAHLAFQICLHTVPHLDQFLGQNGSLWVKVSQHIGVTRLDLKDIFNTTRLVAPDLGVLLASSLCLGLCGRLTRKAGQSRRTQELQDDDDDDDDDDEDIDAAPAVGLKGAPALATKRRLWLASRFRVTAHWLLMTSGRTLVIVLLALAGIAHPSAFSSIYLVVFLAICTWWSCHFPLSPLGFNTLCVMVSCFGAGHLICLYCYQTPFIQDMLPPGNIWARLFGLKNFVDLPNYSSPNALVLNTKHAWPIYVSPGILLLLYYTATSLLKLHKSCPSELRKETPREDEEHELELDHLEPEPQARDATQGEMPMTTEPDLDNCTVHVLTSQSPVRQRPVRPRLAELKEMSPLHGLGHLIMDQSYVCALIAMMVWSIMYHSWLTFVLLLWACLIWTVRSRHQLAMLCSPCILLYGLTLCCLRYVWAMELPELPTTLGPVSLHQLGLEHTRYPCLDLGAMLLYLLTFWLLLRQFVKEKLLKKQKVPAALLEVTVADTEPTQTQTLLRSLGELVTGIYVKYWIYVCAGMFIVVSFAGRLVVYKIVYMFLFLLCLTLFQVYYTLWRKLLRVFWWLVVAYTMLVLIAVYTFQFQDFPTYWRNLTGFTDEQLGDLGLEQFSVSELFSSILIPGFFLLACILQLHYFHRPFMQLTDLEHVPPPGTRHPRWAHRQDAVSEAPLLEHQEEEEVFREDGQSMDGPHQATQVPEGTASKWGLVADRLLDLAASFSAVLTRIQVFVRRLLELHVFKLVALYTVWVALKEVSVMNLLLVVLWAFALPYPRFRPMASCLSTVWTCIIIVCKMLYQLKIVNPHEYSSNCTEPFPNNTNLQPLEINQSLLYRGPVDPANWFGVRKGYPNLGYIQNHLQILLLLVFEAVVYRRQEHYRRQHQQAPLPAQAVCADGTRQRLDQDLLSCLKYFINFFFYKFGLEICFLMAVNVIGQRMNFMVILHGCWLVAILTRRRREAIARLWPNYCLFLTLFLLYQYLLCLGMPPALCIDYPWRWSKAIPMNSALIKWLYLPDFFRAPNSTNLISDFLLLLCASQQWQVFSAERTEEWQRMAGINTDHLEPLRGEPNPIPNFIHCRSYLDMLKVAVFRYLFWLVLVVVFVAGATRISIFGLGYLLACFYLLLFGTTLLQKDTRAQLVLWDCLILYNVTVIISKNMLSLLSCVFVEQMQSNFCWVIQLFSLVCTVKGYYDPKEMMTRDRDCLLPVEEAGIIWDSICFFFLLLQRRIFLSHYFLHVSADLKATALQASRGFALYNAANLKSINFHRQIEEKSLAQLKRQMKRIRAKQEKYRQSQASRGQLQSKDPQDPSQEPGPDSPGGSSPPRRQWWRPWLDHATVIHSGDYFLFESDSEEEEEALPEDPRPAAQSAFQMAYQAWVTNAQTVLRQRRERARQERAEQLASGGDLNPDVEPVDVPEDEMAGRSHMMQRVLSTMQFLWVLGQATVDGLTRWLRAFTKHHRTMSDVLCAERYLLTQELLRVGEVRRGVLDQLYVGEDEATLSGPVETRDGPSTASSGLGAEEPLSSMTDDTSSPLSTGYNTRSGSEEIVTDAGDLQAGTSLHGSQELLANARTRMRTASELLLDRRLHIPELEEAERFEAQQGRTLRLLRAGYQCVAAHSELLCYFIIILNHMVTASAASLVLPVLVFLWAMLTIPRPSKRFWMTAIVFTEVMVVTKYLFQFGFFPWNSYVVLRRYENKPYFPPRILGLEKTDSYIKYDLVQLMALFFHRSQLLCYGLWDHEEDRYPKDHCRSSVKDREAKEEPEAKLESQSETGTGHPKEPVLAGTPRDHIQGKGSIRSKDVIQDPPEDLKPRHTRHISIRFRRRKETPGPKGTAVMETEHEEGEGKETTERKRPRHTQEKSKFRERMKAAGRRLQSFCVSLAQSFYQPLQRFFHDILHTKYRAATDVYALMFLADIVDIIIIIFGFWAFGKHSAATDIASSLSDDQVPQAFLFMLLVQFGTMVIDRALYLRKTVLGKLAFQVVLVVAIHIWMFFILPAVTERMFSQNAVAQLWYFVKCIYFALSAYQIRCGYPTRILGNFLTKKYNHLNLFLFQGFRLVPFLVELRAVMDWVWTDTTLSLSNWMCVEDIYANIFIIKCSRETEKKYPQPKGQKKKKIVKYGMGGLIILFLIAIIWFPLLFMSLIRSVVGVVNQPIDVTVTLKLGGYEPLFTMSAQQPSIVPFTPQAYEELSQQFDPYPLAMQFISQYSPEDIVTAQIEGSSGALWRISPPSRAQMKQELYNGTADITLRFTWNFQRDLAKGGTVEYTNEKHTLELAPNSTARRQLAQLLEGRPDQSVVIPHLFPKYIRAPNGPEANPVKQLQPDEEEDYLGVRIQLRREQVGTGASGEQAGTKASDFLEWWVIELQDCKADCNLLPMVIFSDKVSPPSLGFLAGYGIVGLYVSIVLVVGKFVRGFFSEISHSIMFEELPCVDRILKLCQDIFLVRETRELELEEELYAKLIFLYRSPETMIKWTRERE

Take `Clc1cccc(Cl)c1CSc1nnc(-c2cnccn2)s1` [Yoda1]: the EC50 was 29.4 ± 1.25 µM.
